Results on 11 compounds are retold here after ChEMBL document CHEMBL1201862, “PubChem BioAssay data set” (2004).

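Each compound was tested at five concentrations against cells in 96-well plates for 48 hours. GI50 = concentration required for 50% inhibition of growth.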 Active and inactive are the calls of the source. No stated cut-off is given here; in the data, active = GI50 up to about 1.1 µM and inactive = higher. Bounds are passed on as bounds.

Some test systems named below: EKVX; RXF 393; HT-29; RPMI-8226; LOX IMVI; OVCAR-8; SK-MEL-5; NCI-H522; UACC-257; NCI-H23; IGROV-1; SR; SW-620; SF-268; SNB-19; SN12C; HCT-116; UACC-62; SF-539; HOP-62.
Common to all, as to test: NCI-60 cell line screen, 48 h

For the compound `CCNc1cc2c(cc1O)CC[C@@H]1[C@@H]2CC[C@]2(C)[C@@H](O)CC[C@@H]12`, the GI50 in the test with EKVX was 16.3 µM (inactive); in the test with RXF 393 it was 3.53 µM (inactive); with HT-29, 15.8 µM (inactive); in the test with RPMI-8226, 2.31 µM (inactive); with LOX IMVI, 2.98 µM (inactive); in the test on OVCAR-8, 11.7 µM (inactive). Besides, the GI50 is 0.394 µM (active) in the test on SK-MEL-5; 2.04 µM (inactive) in the test with NCI-H522; 11.8 µM (inactive) with UACC-257; 12.9 µM (inactive) in the test with NCI-H23; 15.5 µM (inactive) with IGROV-1; 1.31 µM (inactive) in the test on SR. Also, the GI50 in the test with SW-620 was 2.82 µM (inactive); with SF-268 it was 15.8 µM (inactive); in the test with SNB-19 it was 0.82 µM (active); with SN12C it was 15.3 µM (inactive).
Consider `O=C(CO)CC(=O)C(=O)Nc1cccc(C(F)(F)F)c1`, for which the GI50 in the test on HCT-116, in the test with HT-29, in the test with RPMI-8226, in the test on LOX IMVI, in the test with UACC-62 and in the test on OVCAR-8 was > 100 µM (inactive) throughout. For the same compound, the GI50 in the test on NCI-H522, in the test on UACC-257, in the test with SF-539, in the test on NCI-H23, with IGROV-1 and with SR was > 100 µM (inactive) in each case. Moreover, the GI50 with SW-620, in the test on HOP-62, in the test with SF-268, with SNB-19 and in the test on SN12C was > 100 µM (inactive) in each case.
`COc1ccc2c(C)c(Oc3c(Cl)c(Cl)c(O)c(C#N)c3C#N)oc2c1`: the GI50 with EKVX, in the test with HCT-116, in the test with HT-29, in the test with RPMI-8226, with LOX IMVI and in the test with UACC-62 was > 100 µM (inactive) each time. For the same compound, the GI50 with OVCAR-8, with SK-MEL-5, in the test on NCI-H522, in the test with UACC-257, in the test with SF-539 and in the test with NCI-H23 was > 100 µM (inactive) throughout. The GI50 in the test with IGROV-1, in the test on SR, in the test with SW-620, with HOP-62, in the test on SF-268 and with SNB-19 was > 100 µM (inactive) each time. For the same compound, the GI50 in the test on SN12C is > 100 µM (inactive).
As to `OCCSCC(O)Cn1cnc2c(O)nc(Nc3ccccc3)nc21` (centres undefined), the GI50 in the test with EKVX, with HCT-116, in the test on HT-29, with RPMI-8226, with LOX IMVI and with UACC-62 was > 100 µM (inactive) throughout. Besides, the GI50 in the test with OVCAR-8, with SK-MEL-5, with NCI-H522, with UACC-257, in the test with SF-539 and in the test on NCI-H23 was > 100 µM (inactive) in each case. Moreover, the GI50 in the test with IGROV-1, with SR, with SW-620, in the test with HOP-62, in the test on SF-268 and in the test with SNB-19 was > 100 µM (inactive) in each case. Further, in the test with SN12C, the GI50 is > 100 µM (inactive).
With `COc1ccc2c(c1)C(=O)CCc1cc(OC)c(OC)c(OC)c1-2`, the GI50 is 0.045 µM (active) in the test with EKVX; 0.0506 µM (active) in the test with HCT-116; 0.0374 µM (active) in the test on HT-29; 0.0631 µM (active) in the test with RPMI-8226; 0.0966 µM (active) with LOX IMVI; 0.075 µM (active) in the test with UACC-62. Also, the GI50 is 0.0513 µM (active) in the test on OVCAR-8; 0.0521 µM (active) in the test on SK-MEL-5; < 0.01 µM (active) with NCI-H522; < 0.01 µM (active) with UACC-257; < 0.01 µM (active) in the test on SF-539; 0.024 µM (active) in the test with NCI-H23. Also, the GI50 with IGROV-1 is 0.0553 µM (active); in the test with SR it was 0.0354 µM (active); in the test on SW-620 it was 0.0716 µM (active); in the test with HOP-62, 0.0662 µM (active); in the test with SF-268, 0.0948 µM (active); in the test with SNB-19 it was 0.051 µM (active). In addition, the GI50 in the test with SN12C is 0.0649 µM (active).
As for `CCCCCC/C=C1\CCC(CN2CCOCC2)C1=O` (centres undefined), the GI50 with EKVX was 14.1 µM (inactive); in the test on HCT-116, 14.4 µM (inactive); with HT-29 it was 17.7 µM (inactive); with RPMI-8226, 2.24 µM (inactive); with LOX IMVI it was 10.2 µM (inactive); with UACC-62 it was 16.8 µM (inactive). The GI50 with OVCAR-8 is 16.8 µM (inactive); with SK-MEL-5, 18.1 µM (inactive); with NCI-H522, 7.87 µM (inactive); in the test on UACC-257, 15.1 µM (inactive); in the test with SF-539 it was 16.9 µM (inactive); in the test with NCI-H23 it was 16.9 µM (inactive). For the same compound, the GI50 in the test with IGROV-1 is 19 µM (inactive); with SR, 4.31 µM (inactive); in the test with SW-620, 8.2 µM (inactive); with HOP-62, 18.3 µM (inactive); in the test with SF-268 it was 19.6 µM (inactive); in the test with SNB-19 it was 18.6 µM (inactive). Further, the GI50 in the test on SN12C was 17.2 µM (inactive).
As to `Cc1ccc(S(=O)(=O)N2CCN(C=S)CC2)cc1`, the GI50 in the test with EKVX, in the test on HCT-116, with RXF 393, in the test with HT-29, in the test with LOX IMVI and in the test with UACC-62 was > 100 µM (inactive) in each case. The GI50 with OVCAR-8, with SK-MEL-5, in the test with NCI-H522, in the test with UACC-257, with SF-539 and in the test on NCI-H23 was > 100 µM (inactive) in each case. The GI50 with IGROV-1, with SR, with SW-620, with HOP-62, in the test on SF-268 and in the test with SNB-19 was > 100 µM (inactive) in each case. In addition, in the test on SN12C, the GI50 is > 100 µM (inactive).
Consider `CC12N=NNC1C(=O)NC2=O` (centres undefined), for which the GI50 in the test on EKVX, with HCT-116, with HT-29, with RPMI-8226, in the test with LOX IMVI and with UACC-62 was > 100 µM (inactive) each time. Besides, the GI50 with OVCAR-8, with SK-MEL-5, with NCI-H522, with UACC-257, with SF-539 and in the test on NCI-H23 was > 100 µM (inactive) throughout. The GI50 in the test on IGROV-1, with SR, with SW-620, with HOP-62, in the test on SF-268 and in the test on SNB-19 was > 100 µM (inactive) each time. For the same compound, the GI50 in the test on SN12C is > 100 µM (inactive).
For the compound `CCCCc1ccc(-n2sc3ncc([N+](=O)[O-])cc3c2=O)cc1`, the GI50 was 13.6 µM (inactive) in the test with EKVX; 8.57 µM (inactive) with HCT-116; 13.8 µM (inactive) in the test on HT-29; 9.12 µM (inactive) in the test on RPMI-8226; 13.3 µM (inactive) with LOX IMVI; 8.69 µM (inactive) in the test with UACC-62. In addition, the GI50 is 22.9 µM (inactive) with OVCAR-8; 14.6 µM (inactive) in the test on SK-MEL-5; 1.2 µM (inactive) in the test with NCI-H522; 16.6 µM (inactive) in the test on UACC-257; 15.3 µM (inactive) in the test with SF-539; 11.2 µM (inactive) in the test with NCI-H23. Further, the GI50 with IGROV-1 was 13.8 µM (inactive); with SR, 16 µM (inactive); with SW-620, 16.8 µM (inactive); in the test with HOP-62, 14.4 µM (inactive); in the test on SF-268, 13 µM (inactive); in the test on SNB-19, 13.7 µM (inactive). The GI50 with SN12C is 17.3 µM (inactive).
On to `O=c1[nH]c(=O)n(C2OC(CO)C(O)C2O)cc1OCCc1ccccc1` (centres undefined), for which the GI50 with EKVX, in the test with HCT-116, in the test with RXF 393, in the test with HT-29, with LOX IMVI and in the test on UACC-62 was > 100 µM (inactive) throughout. The GI50 in the test on OVCAR-8, with SK-MEL-5, in the test on NCI-H522, in the test with UACC-257, in the test with SF-539 and with NCI-H23 was > 100 µM (inactive) each time. Also, the GI50 in the test on IGROV-1, in the test on SR, in the test on SW-620, in the test with HOP-62, in the test with SF-268 and in the test with SNB-19 was > 100 µM (inactive) in each case. In the test with SN12C, the GI50 was > 100 µM (inactive).
On to `CCOC(=O)C(SCCO)C(C(=O)OCC)n1ccc(N)nc1=O` (centres undefined), for which the GI50 in the test on EKVX, in the test on HCT-116, in the test on HT-29, in the test with RPMI-8226, with LOX IMVI and in the test on UACC-62 was > 100 µM (inactive) in each case. Besides, the GI50 in the test on OVCAR-8, with SK-MEL-5, in the test with NCI-H522, with UACC-257, in the test on SF-539 and in the test with NCI-H23 was > 100 µM (inactive) in each case. Further, the GI50 with IGROV-1, with SR, in the test with SW-620, with HOP-62, with SF-268 and in the test on SNB-19 was > 100 µM (inactive) throughout. Further, the GI50 in the test with SN12C is > 100 µM (inactive).
